Test results from patent publication US4983740A, “Process for 1,4-dihydropyridine compounds” (Adir et Compagnie, priority 1986, dated 1991).
Structures can show the parent of a compound that is named as a salt.

These compounds were tested on rat aorta (assay: In vitro activity in rat aorta stimulated by potassium ions). Conditions: 1 h; rat aorta rings, KCl 80 mM stimulation, cumulative doses at 60 minutes intervals.
Format: cell-based, rat (male Wistar)
Procedure: Determination of the Vitro Activity in Rat Aorta Stimulated by Potassium Ions
This trial was carried out using isolated organs removed from male Wistar rats weighing 300 to 400 g, kept under a water diet 18 hours before sacrificing.
After quickly sacrificing the animal, the aorta (at the level of the arch of the aorta) is removed and dissected into 2 mm-long rings; the endothelium is removed mechanically. After an equilibration period of 1 hour in a physiological solution consisting of (mM): NaCl 112, KCl 5, KH2 PO4 1, MgSO4 1.2, CaCl2 2.5, NaHCO3 25 and glucose 11.5, the preparations are stimulated with a potassium-rich solution. The latter consists of (mM):NaCl 37, KCl 80, KH2 PO4 1, MgSO4 1.2, CaCl2 2.5, NaHCO3 25 and glucose 11.5. This solution has a pH of 7.4 at 37° C.
After 15 minutes of stabilization, the compounds to be tested are then added (sample volume 0.2 ml) at cumulative doses at 60 minutes intervals. From the relaxation values obtained, it is possible to construct a doseresponse curve, leading to the calculation of an IC50 value (expressed in M).

IC50 [nM]	SMILES
1000	CCOC(=O)C1=C(COCCOCCN)NC(C)=C(C(=O)OC)C1c1ccc(OC)c(OC)c1OC (racemic) [EXAMPLE 3, (4R,S)-2-{[2-(2-Aminoethoxy)ethoxy]methyl}-3-ethoxycarbonyl-5-methoxycarbonyl-6-methyl-4-(2,3,4-trimethoxyphenyl)-1,4-dihydropyridine fumarate]
300	COC(=O)C1=C(C)NC(COCCOCCN)=C(C(=O)OCC(C2CC2)C2CC2)C1c1ccccc1Cl (racemic) [EXAMPLE 4, (4R,S)-2-{[2-(2-Aminoethoxy)ethoxy]methyl}-4-(2-chlorophenyl)-3-(2,2-dicyclopropylethoxycarbonyl)-5-methoxycarbonyl-6-methyl-1,4-dihydropyridine fumarate]
3000	CCOC(=O)C1=C(COCCOCCN)NC(C)=C(C(=O)OCC(C2CC2)C2CC2)C1c1ccccc1Cl (racemic) [EXAMPLE 9, (4R,S)-2-{[2-(2-Aminoethoxy)ethoxy]methyl}-4-(2-chlorophenyl)-5-(2,2-dicyclopropylethoxycarbonyl)-3-ethoxycarbonyl-6-methyl-1,4-dihydropyridine fumarate]
90	CCOC(=O)C1=C(COCCOCCN)NC(COC)=C(C(=O)OC)C1c1cccc(Cl)c1Cl (racemic) [EXAMPLE 10, (4R,S)-2-{[2-(2-Aminoethoxy)ethoxy]methyl}-4-(2,3-dichlorophenyl)-3-ethoxycarbonyl-5-methoxycarbonyl-6-methoxymethyl-1,4-dihydropyridine]
250	CCOC(=O)C1=C(COCCOCC[N+](C)(C)Cc2ccccc2)NC(C)=C(C(=O)OC)C1c1cccc(Cl)c1Cl (racemic) [EXAMPLE 11, N-Benzyl-7-[(4R,S)-3-ethoxycarbonyl-4-(2,3-dichlorophenyl)-5-methoxycarbonyl-6-methyl-2-(1,4-dihydropyridyl)]-N,N-dimethyl-3,6-dioxaheptanammonium iodide]
300	COC(=O)C1=C(C)NC(CCCCCCCN)=C(C(=O)OCC(C2CC2)C2CC2)C1c1ccccc1Cl (racemic) [EXAMPLE 13, (4R,S)-2-(7-Aminoheptyl)-4-(2-chlorophenyl)-3-(2,2-dicyclopropylethoxycarbonyl)-5-methoxycarbonyl-6-methyl-1,4-dihydropyridine fumerate]
40	CCOC(=O)C1=C(CCCCCN)NC(C)=C(C(=O)OC)C1c1ccccc1Cl (racemic) [EXAMPLE 14, (4R,S)-2-(5-Aminopentyl)-4-(2-chlorphenyl)-3-ethoxycarbonyl-5-methoxycarbonyl-6-methyl-1,4-dihydropyridine citrate]
120	CCOC(=O)C1=C(C)NC(COCCOCCN)=C(C(=O)OCC)C1c1c(F)c(F)c(F)c(F)c1F (racemic) [EXAMPLE 15, (4R,S)-2-{[2-(2-Aminoethoxy)ethoxy]methyl}-3,5-diethoxycarbonyl-6-methyl-4-pentafluorophenyl-1,4-dihydropyridine]
61	CCCNCCOCCOCC1=C(C(=O)OCC)C(c2c(F)c(F)c(F)c(F)c2F)C(C(=O)OCC)=C(C)N1 (racemic) [EXAMPLE 16, (4R,S)-3,5-Diethoxycarbonyl-6-methyl-4-pentafluorophenyl-2-[{2-[2-(N-propylamino)ethoxy]ethoxy}methyl]-1,4-dihydropyridine oxalate]
7.6	CCOC(=O)C1=C(COCCOCCN)NC(C)=C(C(=O)OC)C1c1ccccc1C(F)(F)F (racemic) [EXAMPLE 17, (4R,S)-2-{[2-(2-Aminoethoxy)ethoxy]methyl}-3-ethoxycarbonyl-5-methoxycarbonyl-6-methyl-4-(2-trifluoromethylphenyl)-1,4-dihydropyridine fumarate]
4.7	CCOC(=O)C1=C(COCCOCCN)NC(C)=C(C(=O)OC)C1c1cccc(Cl)c1 (racemic) [EXAMPLE 18, (4R,S)-2-{[2-(2-Aminoethoxy)ethoxy]methyl}-4-(3-chlorophenyl)-3-ethoxycarbonyl-5-methoxycarbonyl-6-methyl-1,4-dihydropyridine tartrate]
4.9	COC(=O)C1=C(C)NC(COCCOCCN)=C(C(=O)OC)C1c1c(F)c(F)c(F)c(F)c1F (racemic) [EXAMPLE 19, (4R,S)-2-{[2-(2-Aminoethoxy)ethoxy]methyl}-3,5-dimethoxycarbonyl-6-methyl-4-pentafluorophenyldihydropyridine tartrate]
26	CCOC(=O)C1=C(C)NC(COCCOCCN)=C(C(=O)OC)C1c1c(F)c(F)c(F)c(F)c1F (racemic) [EXAMPLE 20, (4R,S)-2-{[2-(2-Aminoethoxy)ethoxy]methyl}-5-ethoxycarbonyl-3-methoxycarbonyl-6-methyl-4-pentafluorophenyldihydropyridine tartrate]
68	CCOC(=O)C1=C(COCCOCCNC(=O)C(F)(F)F)NC(C)=C(C(=O)OC)C1c1c(F)c(F)c(F)c(F)c1F (racemic) [EXAMPLE 21, (4R,S)-2-[{2-[2-(N-Trifluoroacetylamino)ethoxy]-ethoxy}methyl]-3-ethoxycarbonyl-5-methoxycarbonyl-6-methyl-4-pentafluorophenyl-1,4-dihydropyridine]
20	CCOC(=O)C1=C(COCCOCCN)NC(C)=C(C(=O)OC)C1c1cccc(SC)c1OC (racemic) [EXAMPLE 22]
200	COC(=O)C1=C(C)NC(COCCOCCN)=C(C(=O)OCc2ccc([N+](=O)[O-])cc2)C1c1c(F)c(F)c(F)c(F)c1F (racemic) [EXAMPLE 23, (4R,S)-2-{[2-(2-Aminoethoxy)ethoxy]methyl}-3-(4-nitrobenzyloxycarbonyl)-5-methoxy-6-methyl-4-pentafluorophenyl-1,4-dihydropyridine tartrate]
0.82	CCOC(=O)C1=C(COCCCOCCCN)NC(C)=C(C(=O)OC)C1c1c(F)c(F)c(F)c(F)c1F (racemic) [EXAMPLE 24, (4R,S)-2-{[3-(3-Aminopropoxy)propoxy]methyl}-3-ethoxycarbonyl-5-methoxycarbonyl-4-pentafluorophenyl-1,4-dihydropyridine tartrate]
13	COC(=O)C1=C(C)NC(COCCOCCN)=C(C(=O)OC(C)C)C1c1cccc(Cl)c1Cl (racemic) [EXAMPLE 25, (4R,S)-2-{[2-(2-Aminoethoxy)ethoxy]methyl}-4-(2,3-dichlorophenyl)-3-isopropoxycarbonyl-5-methoxycarbonyl-6-methyl-1,4-dihydropyridine fumarate]
310	COC(=O)C1=C(C)NC(COCCOCCN)=C(C(=O)OC(C)C)C1c1c(F)c(F)c(F)c(F)c1F (racemic) [EXAMPLE 26, (4R,S)-2-{[2-(2-Aminoethoxy)ethoxy]methyl}-3-isopropoxycarbonyl-5-methoxycarbonyl-6-methyl-4-pentafluorophenyl-1,4-dihydropyridine tartrate]
4.4	CCOC(=O)C1=C(COCCCOCCCN)NC(C)=C(C(=O)OC)C1c1cccc(Cl)c1Cl (racemic) [EXAMPLE 27, (4R,S)-2-{[3-(3-Aminopropoxy)propoxy]methyl}-4-(2,3-dichlorophenyl)-3-ethoxycarbonyl-5-methoxycarbonyl-6-methyl-1,4-dihydropyridine fumarate]
9.3	COC(=O)C1=C(C)NC(COCCOCCN)=C(C(=O)OCC(C)C)C1c1cccc(Cl)c1Cl (racemic) [EXAMPLE 28, (4R,S)-2-{[2-(2-Aminoethoxy)ethoxy]methyl}-4-(2,3-dichlorophenyl)-3-isobutyloxycarbonyl-5-methoxycarbonyl-6-methyl-1,4-dihydropyridine fumarate]
